Experiment [1] has as its system Staphylococcus aureus. The experiment can be described thus: Antibacterial activity against Staphylococcus aureus assessed as inhibition of bacterial growth by broth dilution method. It is filed as functional. (In general: Dilution methods test growth across graded concentrations, often in twofold steps.)
In experiment [2] the test system is Bacillus subtilis. The experiment can be described thus: Antibacterial activity against Bacillus subtilis assessed as inhibition of bacterial growth by agar well dilution assay. In kind it is functional.
In experiment [3] the test system is Pasteurella multocida. The experiment can be described thus: Antibacterial activity against Pasteurella multocida assessed as inhibition of bacterial growth by agar well dilution assay. It is filed as functional.
Experiment [4] deals with Staphylococcus aureus. The experiment can be described thus: Antibacterial activity against Staphylococcus aureus assessed as inhibition of bacterial growth by agar well dilution assay. In kind it is functional.
Experiment [5] has as its system Escherichia coli. The experiment can be described thus: Antibacterial activity against Escherichia coli assessed as inhibition of bacterial growth by agar well dilution assay. In kind it is functional.
The test system of experiment [6] is Pseudomonas aeruginosa. Briefly: Antimicrobial activity against Pseudomonas aeruginosa ATCC 27953 assessed as inhibition of microbial growth incubated for 24 hrs by two-fold serial dilution assay. It is filed as functional.
Experiment [7] concerns Staphylococcus aureus. Briefly: Antimicrobial activity against Staphylococcus aureus ATCC 29213 assessed as inhibition of microbial growth incubated for 24 hrs by two-fold serial dilution assay. In kind it is functional.
The subject of the next experiment is Candida albicans. Briefly: Antimicrobial activity against Candida albicans NRRL Y-477 assessed as inhibition of microbial growth incubated for 48 hrs by two-fold serial dilution assay. It is filed as functional.
In a further experiment the test system is Klebsiella pneumoniae. Briefly: Antimicrobial activity against Klebsiella pneumoniae ATCC 13883 assessed as inhibition of microbial growth incubated for 24 hrs by two-fold serial dilution assay. It is filed as functional.
Experiment [8] concerns Escherichia coli. Briefly: Antimicrobial activity against Escherichia coli ATCC 25922 assessed as inhibition of microbial growth incubated for 24 hrs by two-fold serial dilution assay. In kind it is functional.
Another experiment has as its system Micrococcus luteus. Briefly: Antimicrobial activity against Sarcina lutea assessed as inhibition of microbial growth incubated for 24 hrs by two-fold serial dilution assay. It is filed as functional.
Another experiment concerns Priestia megaterium. Briefly: Antimicrobial activity against Bacillus megaterium ATCC 9885 assessed as inhibition of microbial growth incubated for 24 hrs by two-fold serial dilution assay. It is filed as functional.
Experiment [9] concerns Bacillus subtilis. Briefly: Antimicrobial activity against Bacillus subtilis ATCC 6633 assessed as inhibition of microbial growth incubated for 24 hrs by two-fold serial dilution assay. In kind it is functional.
In experiment [10] the test system is Staphylococcus aureus. The experiment can be described thus: Antibacterial activity against Staphylococcus aureus assessed as inhibition of bacterial growth incubated for 24 hrs by broth microdilution method. It is filed as functional.
In another experiment the test system is Vibrio cholerae. Briefly: Antibacterial activity against Vibrio cholerae assessed as inhibition of bacterial growth incubated for 24 hrs by broth microdilution method. It is filed as functional.
The next experiment concerns Shigella flexneri. The experiment can be described thus: Antibacterial activity against Shigella flexneri assessed as inhibition of bacterial growth incubated for 24 hrs by broth microdilution method. It is filed as functional.
The subject of experiment [11] is Staphylococcus aureus. The experiment can be described thus: Antimicrobial activity against methicillin-resistant Staphylococcus aureus assessed as inhibition of microbial growth incubated for 18 hrs by agar diffusion method. In kind it is functional. In general terms: A growth-free zone around the sample is the usual read-out of agar diffusion tests.
Experiment [12] concerns Staphylococcus aureus. Briefly: Antibacterial activity against methicillin-resistant Staphylococcus aureus SK1 assessed as inhibition of bacterial growth by two-fold serial dilution method. It is filed as functional.
The test system of experiment [13] is Escherichia coli. Briefly: Antibacterial activity against Escherichia coli JW5503 harboring tolC mutant assessed as inhibition of bacterial growth incubated for 16 to 20 hrs by two-fold serial dilution assay. In kind it is functional. As to conditions: time 16-20 hrs.
For a further experiment, the system named is Salmonella typhimurium. Briefly: Antibacterial activity against Salmonella typhimurium TISTR 292 assessed as inhibition of bacterial growth by two-fold serial dilution method. To be noted: Salmonella enterica. It is filed as functional, Salmonella enterica subsp. enterica serovar Typhimurium.
Experiment [14] concerns Staphylococcus aureus. The experiment can be described thus: Antibacterial activity against Staphylococcus aureus TISTR 1466 assessed as inhibition of bacterial growth by two-fold serial dilution method. It is filed as functional.
The test system of experiment [15] is Escherichia coli. Briefly: Antibacterial activity against Escherichia coli TISTR 780 assessed as inhibition of bacterial growth by two-fold serial dilution method. In kind it is functional.
Experiment [16] deals with Staphylococcus epidermidis. The experiment can be described thus: Antibacterial activity against Staphylococcus epidermidis assessed as zone of inhibition at 25 ug/ml. In kind it is functional. To be noted: read-out: IZ.
In another experiment the test system is Proteus vulgaris. The experiment can be described thus: Antibacterial activity against Proteus vulgaris assessed as zone of inhibition at 25 ug/ml. In kind it is functional. To be noted: read-out: IZ.
The subject of experiment [17] is Escherichia coli. The experiment can be described thus: Antibacterial activity against Escherichia coli assessed as zone of inhibition at 25 ug/ml. In kind it is functional. As to conditions: read-out: IZ.
Experiment [18] relates to Bacillus subtilis. Briefly: Antibacterial activity against Bacillus subtilis assessed as zone of inhibition by agar-disc diffusion method. It is filed as functional.
The test system of experiment [19] is Staphylococcus aureus. The experiment can be described thus: Antibacterial activity against Staphylococcus aureus assessed as zone of inhibition by agar-disc diffusion method. It is filed as functional.
In experiment [20] the test system is Pasteurella multocida. Briefly: Antibacterial activity against Pasteurella multocida assessed as inhibition of bacterial growth by agar well diffusion method. In kind it is functional.
Experiment [21] deals with Pseudomonas aeruginosa. The experiment can be described thus: Antibacterial activity against Pseudomonas aeruginosa assessed as zone of inhibition incubated for 24 hrs by disk diffusion method. In kind it is functional.

Each structure is given as a SMILES string. Converted amounts (≈) assume the structure as drawn.

The MIC is the lowest concentration found to suppress growth.

On to `COc1cc2c3c([nH]c2cc1C)C(=O)C=C(C)C3=O`, for which the minimal inhibitory concentration (MIC) in the experiment on Staphylococcus aureus [1] turned out to be 50 µg/mL (≈ 196 µM).
Consider `C/C(=N\C(Cc1c[nH]cn1)C(=O)Oc1cc(C(=O)O)cc(O)c1O)C1CCCc2c1[nH]c1c([N+](=O)[O-])cc([N+](=O)[O-])cc21` (configuration not stated), for which the MIC in the experiment on Bacillus subtilis [2], in the experiment with Pasteurella multocida [3], with Staphylococcus aureus [4] and with Escherichia coli [5] was 0.056 µg/mL (≈ 0.0945 µM) throughout.
Regarding `O=C(NN1C(=O)c2ccccc2C1=O)c1ccc(-n2c3c(c4ccccc42)CCCC3)cc1`, the MIC in the experiment with Pseudomonas aeruginosa [6], with Staphylococcus aureus [7], with Candida albicans, with Klebsiella pneumoniae, in the experiment on Escherichia coli [8] and in the experiment with Micrococcus luteus was 25 µg/mL each time. The MIC with Priestia megaterium and in the experiment on Bacillus subtilis [9] was 25 µg/mL throughout.
`COc1cc(C)c(CC=C(C)C)c2c1[nH]c1ccccc12`: the MIC in the experiment on Staphylococcus aureus [10], in the experiment on Vibrio cholerae and with Shigella flexneri was 32 µg/mL (≈ 115 µM) in each case.
As to `C=C(C)C1Cc2c(cc(O)c3[nH]c4ccccc4c23)C(=O)O1` (configuration not stated) [CLAUSAMINE A], the figures for the MIC with Staphylococcus aureus [11] and with Staphylococcus aureus [12] were 64 µg/mL and 8 µg/mL (≈ 27.3 µM), respectively.
Take `CC1=CC(=O)c2[nH]c3ccccc3c2C1=O` [MURRAYAQUINONE A]: in the experiment with Staphylococcus aureus [1], the MIC amounted to 50 µg/mL (≈ 237 µM).
On to `C=C(C)C1Cc2c(cc(OC)c3[nH]c4ccccc4c23)C(=O)O1` (configuration not stated) [CLAUSAMINE B], for which the MIC in the experiment with Staphylococcus aureus [12] stood at 0.25 µg/mL (≈ 0.813 µM).
Turning to `NC1CCCc2c1[nH]c1ccc(Cl)cc21` (configuration not stated), the MIC with Escherichia coli [13] came to 37 µg/mL (≈ 168 µM).
Take `NCC1CCCc2c1[nH]c1ccc(Cl)cc21` (configuration not stated): the MIC in the experiment with Escherichia coli [13] came to 21.1 µg/mL (≈ 89.9 µM).
As for `CC1(C)C=Cc2c(ccc3[nH]c4ccc(C=O)cc4c23)O1`, the MIC with Salmonella typhimurium, in the experiment with Staphylococcus aureus [14], with Escherichia coli [15] and in the experiment with Staphylococcus aureus [12] was 64 µg/mL (≈ 231 µM) each time.
Take `CC1(C)Oc2ccc3[nH]c4cc(O)c(C=O)cc4c3c2[C@@H](O)[C@H]1O`: the MIC in the experiment with Salmonella typhimurium, in the experiment with Staphylococcus aureus [14], in the experiment on Escherichia coli [15] and in the experiment with Staphylococcus aureus [12] was 64 µg/mL (≈ 196 µM) each time.
In the case of `Cc1ccc2[nH]c3c(c2c1)CC/C(=C\c1ccc(Br)cc1)C3=O`, the zone of inhibition at 25 µg/mL (in experiment [16]; with Proteus vulgaris; in the experiment with Escherichia coli [17]) was 15 mm each time.
As to `CC(C)=CCc1c(O)c(C=O)cc2c1[nH]c1ccccc12` [HEPTAPHYLLINE], the “inhibition zone (IZ)” value in the experiment on Bacillus subtilis [18] was determined as 12 mm; in the experiment with Staphylococcus aureus [19] it was 14 mm.
On to `COC(=O)c1cc(O)c2[nH]c3ccc(O)c(CC=C(C)C)c3c2c1`, for which the MIC with Salmonella typhimurium, in the experiment on Staphylococcus aureus [14], in the experiment on Escherichia coli [15] and in the experiment with Staphylococcus aureus [12] was 64 µg/mL (≈ 197 µM) throughout.
For `C/C(=N/Nc1ccc([N+](=O)[O-])cc1[N+](=O)[O-])C1CCCc2c1n(C)c1c([N+](=O)[O-])cc([N+](=O)[O-])cc21` (configuration not stated), the MIC in the experiment on Pasteurella multocida [20] was 4.5 µg/mL (≈ 9.05 µM).
On to `O=C(NN1C(=O)C(Cl)=C(Cl)C1=O)c1ccc(-n2c3c(c4ccccc42)CCCC3)cc1`, for which the MIC in the experiment on Pseudomonas aeruginosa [6], with Staphylococcus aureus [7], in the experiment on Candida albicans, in the experiment on Klebsiella pneumoniae, with Escherichia coli [8] and in the experiment with Micrococcus luteus was 25 µg/mL each time. The MIC in the experiment on Priestia megaterium and in the experiment on Bacillus subtilis [9] was 25 µg/mL throughout.
In the case of `C=CC(=C)c1c(C(=O)OC)cc(O)c2[nH]c3ccccc3c12`, the MIC in the experiment on Staphylococcus aureus [14] and in the experiment on Staphylococcus aureus [12] was 4 µg/mL (≈ 13.6 µM) in each case.
For `O=C(CCn1c2c(c3ccccc31)CCCC2)N1C[C@H]2C[C@H](C1)c1cccc(=O)n1C2`, in the experiment on Escherichia coli [13], the MIC stood at 42.1 µg/mL (≈ 101 µM).
With `CCOc1nc2c(c(-c3ccc(F)cc3)c1C(N)=O)CCc1c-2[nH]c2ccccc12`, the “inhibition zone (IZ)” value with Pseudomonas aeruginosa [21] was 2.1 cm.

The record behind these values is ChEMBL document CHEMBL5532637, “Antimicrobial activity of natural and semi-synthetic carbazole alkaloids” (Eur J Med Chem, 2023).
